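Where inhibition never reached the appropriate level, the endpoint shown equals the highest concentration tested. Otherwise, values were interpolated linearly from a five-concentration, 48-hour dose response in 96-well plates. At the TGI there is no net growth.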
Columns and labels:
Test in all cases: NCI anticancer screen, dose series, 48 h
[1] = test system: A549 NSCLC
[2] = test system: HCT-116 colon
[3] = test system: MDA-MB-231 breast
[4] = test system: MDA-MB-435
[5] = test system: MOLT-4 leukemia
[6] = test system: OVCAR-4 ovarian
[7] = test system: OVCAR-8 ovarian
[8] = test system: RXF 393 renal
[9] = test system: SF-268 CNS
[10] = test system: TK-10 renal

Row | Compound | TGI [1] | TGI [2] | TGI [3] | TGI [4] | TGI [5] | TGI [6] | TGI [7] | TGI [8] | TGI [9] | TGI [10]
1 | Cn1c(-c2cccc([N+](=O)[O-])c2)[n+](C)c2ccccc21 | > 100 µM | > 100 µM | > 100 µM | > 100 µM | > 100 µM | > 100 µM | > 100 µM | > 100 µM | > 100 µM | > 100 µM
2 | O=[N+]([O-])c1cc(-c2nc(-c3ccccc3)c(-c3ccccc3)[nH]2)c(O)c([N+](=O)[O-])c1 | > 100 µM | 33.4 µM | 49.9 µM | 95.3 µM | 61.7 µM | > 100 µM | > 100 µM | 44.8 µM | > 100 µM | 65.8 µM
3 | OCCNCNc1nc(NCNCCO)nc(N(CNCCO)CNCCO)n1 | > 78.2 µM | 41.5 µM | 52.7 µM | 35.8 µM | 67.7 µM | > 65.4 µM | 59.5 µM | 31.1 µM | 60.8 µM | 72.1 µM
4 | CN(C)c1nc(Cl)c2c(-c3ccccc3)c(-c3ccccc3)oc2n1 | > 100 µM | > 100 µM | > 100 µM | > 100 µM | 96.2 µM | > 100 µM | > 100 µM | 45.2 µM | > 100 µM | > 100 µM
5 | C=C(C)[C@@H]1CCC2=C[C@H](OC2=O)[C@@]2(C)C[C@@H]2C2=CC(C)=C(O2)[C@H]1O | > 75 µM | > 75 µM | > 75 µM | > 75 µM | > 75 µM | > 75 µM | > 75 µM | > 75 µM | > 75 µM | > 75 µM
6 | COC(=O)c1ccccc1C1CN=NC12Cc1cc(C)ccc1C2=O (stereo not given) | > 100 µM | > 100 µM | > 100 µM | > 100 µM | > 100 µM | > 100 µM | > 100 µM | > 100 µM | > 100 µM | > 100 µM
7 | COc1cc(Cc2nccc3cc(OC)c(OC)cc23)c(N=NN(C)C)cc1OC | 77.2 µM | 17.7 µM | 36.6 µM | 47.3 µM | 90.3 µM | 70.7 µM | 60 µM | 16.4 µM | 77.8 µM | 44.1 µM
8 | CCCCn1c2c(n(CCCC)c1=S)-c1c(n(CCCC)c(=S)n1CCCC)SSc1c(n(CCCC)c(=S)n1CCCC)-c1c(n(CCCC)c(=S)n1CCCC)SSc1c(n(CCCC)c(=S)n1CCCC)-c1c(n(CCCC)c(=S)n1CCCC)SS2 | > 50 µM | > 27.7 µM | 8.67 µM | > 42.1 µM | > 50 µM | > 19.7 µM | > 13.6 µM | > 50 µM | > 30.2 µM | > 50 µM
9 | Cc1ccnc(NC(NC(=O)c2ccccc2)(C(F)(F)F)C(F)(F)F)c1 | > 100 µM | > 100 µM | > 100 µM | > 100 µM | > 100 µM | > 100 µM | > 100 µM | > 100 µM | > 100 µM | > 100 µM
10 | C=C(Br)CNC(=O)CCC(=O)NCC(=C)Br | > 100 µM | > 100 µM | > 100 µM | > 100 µM | > 100 µM | > 100 µM | > 100 µM | > 100 µM | > 100 µM | > 100 µM
11 | N#C/C(N)=C(\C#N)NC(=O)C(=O)N/C(C#N)=C(\N)C#N | > 100 µM | > 100 µM | > 100 µM | > 100 µM | > 100 µM | > 100 µM | > 100 µM | > 100 µM | > 100 µM | > 100 µM
12 | CCOC(=O)CCC(NC(=O)c1ccc(OCc2ccc3nc(-c4ccccc4)c(Cl)nc3c2)cc1)C(=O)OCC (stereo not given) | > 100 µM | > 31.6 µM | > 67.9 µM | > 31.6 µM | > 31.6 µM | > 31.6 µM | 25.3 µM | 8.6 µM | 28.1 µM | > 31.6 µM
13 | CCCCCCCCCCNC(=O)CCC(NC(=O)c1ccc(N(C)Cc2cnc3nc(N)nc(N)c3n2)cc1)C(=O)NCCCCCCCCCC (stereo not given) | > 100 µM | 14 µM | 11.3 µM | 15.4 µM | 30.5 µM | > 45.4 µM | 25.5 µM | 19.3 µM | 40.2 µM | > 92.7 µM
14 | O=C1C(c2c(O)[nH]c3ccc(Br)cc23)=Nc2ccccc21 | 17.3 µM | 6.47 µM | 37.2 µM | 40.1 µM | > 100 µM | 29.8 µM | 21.7 µM | 6.47 µM | 24.4 µM | 27.8 µM
15 | CCOC(=O)c1ccc(N=c2sc3ccccc3nc2Nc2ccc(C(=O)OCC)cc2)cc1 | > 100 µM | > 100 µM | > 100 µM | > 100 µM | > 100 µM | > 100 µM | > 100 µM | > 100 µM | > 100 µM | > 100 µM
16 | CO/N=C(\C)CCC#Cc1ccccc1C(=O)OC | > 10 µM | > 10 µM | > 10 µM | > 10 µM | > 10 µM | > 10 µM | > 10 µM | > 10 µM | > 10 µM | > 10 µM
17 | COc1ccc(/C=C2\CCC(C)C3=C2N=c2s/c(=C/c4cccc(Br)c4)c(=O)n2C3c2ccc(OC)c(OC)c2)cc1OC (stereo not given) | > 100 µM | > 100 µM | > 100 µM | > 100 µM | > 100 µM | > 100 µM | > 100 µM | > 100 µM | > 100 µM | > 100 µM
18 | N#Cc1cnc(N)nc1NCC1(CO)CC(CCc2ccccc2)C1 (stereo not given) | > 100 µM | > 100 µM | > 100 µM | > 100 µM | > 100 µM | > 100 µM | > 100 µM | > 100 µM | > 100 µM | > 100 µM
19 | O=C1C(Cl)=C(Nc2ccc(S(=O)(=O)Nc3ccccn3)cc2)C(=O)c2ccccc21 | 41.9 µM | 18.8 µM | 22 µM | 14 µM | 25.5 µM | > 53.6 µM | 15.9 µM | 22.6 µM | 29.3 µM | 22.7 µM
